Reference: article PMC3408624 (Chemistry & biology, 2012)
“Also recorded” adds a separate entry of the source. Like-named read-outs stand apart in the source and are kept apart here.

Key:
[1] = biological target: LF cleavage of endogenous MKK3 and MKK4 in RAW264.7 cell lysate (Bacillus anthracis, UniProt P15917); assay type: biochemical
[2] = biological target: T1, anthrax lethal factor (LF) (Bacillus anthracis, UniProt P15917); assay: biochemical; assay type: biochemical
RAW264.7 cells [3] = assay type: cell-based
[4] = biological target: T1, anthrax lethal factor (LF); assay: biochemical; assay type: biochemical; remark: listed apart in the source
RAW264.7 cells [5] = assay type: cell-based; remark: listed apart in the source
[6] = biological target: T1, anthrax lethal factor (LF); assay type: biochemical
[7] = read-out: IC50 (µM), MKK6 cleavage

Sequence of LF cleavage of endogenous MKK3 and MKK4 in RAW264.7 cell lysate (P15917 34-809 limits assumed): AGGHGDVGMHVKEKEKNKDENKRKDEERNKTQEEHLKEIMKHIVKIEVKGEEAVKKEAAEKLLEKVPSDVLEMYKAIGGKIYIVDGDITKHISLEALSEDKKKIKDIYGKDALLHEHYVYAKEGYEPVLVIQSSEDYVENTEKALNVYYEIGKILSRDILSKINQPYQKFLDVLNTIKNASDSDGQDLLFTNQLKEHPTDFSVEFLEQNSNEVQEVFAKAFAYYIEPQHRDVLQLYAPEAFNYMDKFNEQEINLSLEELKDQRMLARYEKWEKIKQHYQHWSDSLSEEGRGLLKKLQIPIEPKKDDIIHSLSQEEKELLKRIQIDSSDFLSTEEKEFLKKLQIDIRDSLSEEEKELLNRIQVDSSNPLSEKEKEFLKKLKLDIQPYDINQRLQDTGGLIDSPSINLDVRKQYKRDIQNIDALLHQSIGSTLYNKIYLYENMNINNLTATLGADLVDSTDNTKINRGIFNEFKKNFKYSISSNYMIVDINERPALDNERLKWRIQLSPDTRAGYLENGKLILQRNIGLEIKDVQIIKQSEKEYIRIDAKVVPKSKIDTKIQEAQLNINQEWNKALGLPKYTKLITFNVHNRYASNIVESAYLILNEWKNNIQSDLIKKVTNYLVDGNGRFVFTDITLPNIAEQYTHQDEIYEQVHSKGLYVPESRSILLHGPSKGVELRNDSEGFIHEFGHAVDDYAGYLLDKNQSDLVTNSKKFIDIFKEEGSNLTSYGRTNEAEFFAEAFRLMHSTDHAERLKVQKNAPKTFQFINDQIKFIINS
T1 sequence (P15917 34-809 limits assumed): as above

COc1cc(C)c2c(c1C=O)Oc1c(c(C)c(O)c3c1C(O)OC3=O)OC2=O (centres unmarked) [Compound 1, Stictic acid]
Inhibition of MKK3 cleavage by LF in cell lysate [1]: inhibited cleavage | Inhibition of MKK4 cleavage by LF in cell lysate [1]: inhibited cleavage | IC50 [2]: 24 ± 3 µM | Protection against LeTx-induced cell death (MTT viability) (RAW264.7 cells [3]): partial protection | Inhibition of LF cleavage of a peptide substrate (in words) [4]: weak inhibitors | MKK3 cleavage in intact LeTx-treated cells (RAW264.7 cells [5]): decreased MKK3 cleavage

Cc1cc(O)c(C=O)c2c1C(=O)Oc1c(CO)c(O)c3c(c1O2)C(O)OC3=O (centres unmarked) [Compound 2, Salazinic acid]
Inhibition of MKK3 cleavage by LF in cell lysate [1]: inhibited cleavage | Inhibition of MKK4 cleavage by LF in cell lysate [1]: inhibited cleavage | Inhibition of MKK6 cleavage by LF (structure-activity profile, in words) [2]: active as inhibitors | Mode of inhibition of LF cleavage of MKK6 [2]: competitive inhibition; also recorded: increased KM with no effect on Vmax | IC50 [2, 7]: 42 ± 5 µM | Protection against LeTx-induced cell death (MTT viability) (RAW264.7 cells [3]): partial protection | Inhibition of LF cleavage of a peptide substrate (in words) [4]: weak inhibitors | MKK3 cleavage in intact LeTx-treated cells (RAW264.7 cells [5]): decreased MKK3 cleavage

COc1cc(C(=O)O)c2c(c1C)OC(=O)c1c(C)cc(O)c(C=O)c1O2 [Compound 3, Parellic acid]
Inhibition of MKK3 cleavage by LF in cell lysate [1]: inhibited cleavage | Inhibition of MKK4 cleavage by LF in cell lysate [1]: inhibited cleavage | Inhibition of MKK6 cleavage by LF (structure-activity profile, in words) [2]: active as inhibitors | IC50 [2, 7]: 125 ± 20 µM | Protection against LeTx-induced cell death (MTT viability) (RAW264.7 cells [3]): partial protection | Inhibition of LF cleavage of a peptide substrate (in words) [4]: weak inhibitors | MKK3 cleavage in intact LeTx-treated cells (RAW264.7 cells [5]): decreased MKK3 cleavage

COC(=O)c1c(OC)cc2c(c1C)Oc1c(Cl)c(O)c(Cl)c(C)c1C(=O)O2 [Compound 4, Gangaleoidin]
IC50 [2]: > 250 µM | Inhibition of MKK6 cleavage by LF (structure-activity profile, in words) [2]: failed to inhibit LF

CCCCCC(=O)Cc1cc(O)cc2c1C(=O)Oc1cc(O)c(C(=O)O)c(CCCCC)c1O2 [Compound 5, Physodic acid]
IC50 [2]: > 250 µM | Inhibition of MKK6 cleavage by LF (structure-activity profile, in words) [2]: failed to inhibit LF

Cc1cc(OC(=O)c2c(C)cc(O)cc2O)cc(O)c1C(=O)O [Compound 6, Lecanoric acid]
IC50 (µM), MKK6 cleavage [2]: No inhibition | Inhibition of MKK6 cleavage by LF (structure-activity profile, in words) [2]: lack of inhibition | Protection against LeTx-induced cell death (MTT viability) (RAW264.7 cells [3]): failed to inhibit cell death

COC(=O)c1c(C)cc(OC(=O)c2c(C)cc(O)c(C=O)c2O)c(C)c1O [Compound 7, Atranorin]
IC50 (µM), MKK6 cleavage [2]: No inhibition | Inhibition of MKK6 cleavage by LF (structure-activity profile, in words) [2]: lack of inhibition | Protection against LeTx-induced cell death (MTT viability) (RAW264.7 cells [3]): failed to inhibit cell death

CNC(=O)[C@H](Cc1c[nH]c2ccccc12)NC(=O)[C@@H](CC(=O)NO)CC(C)C [GM6001, reference compound]
IC50 [4]: 9 µM | Result in primary FP screen for inhibition of LF cleavage of labeled MKK6 [6]: scored as a hit

COc1ccccc1C=O [o-anisaldehyde, reference compound]
Inhibition of MKK6 cleavage by LF (in words) [2]: no detectable inhibition

Reduced stictic acid [Compound 8]
IC50 [2, 7]: > 250 µM
